Assay results reported in US4675395A, “Cyclodextrin inclusion compound and process for its preparation” (Seiwa Technological Laboratories Limited, priority 1985, dated 1987).

Assays:
[1] = physchem; conditions: water
[2] = cited from earlier work
[3] = background statement; cited from earlier work

CC(C)c1cccc(=O)c(O)c1 [hinokitiol]
solubility [1]: ≤ 5 mM
solubility in water at 25° C. [2]: about 0.12%
bactericidal and bacteriostatic activity [3]: strong
